Laboratory results as given in PubChem BioAssay AID330 (DTP/NCI, 2004).
Where “and” joins values, the source holds several entries; their conditions need not be identical. Equal values may be shown once. Inconclusive results and toxic doses are left out. How the source made its calls: active means survival T/C of 150% or more; inactive means T/C below 125% in these data.

Test system: P388 leukemia ip, CD2F1 mice, survival T/C
Test: NCI In Vivo Anticancer Drug Screen. Data for tumor model P388 Leukemia (intraperitoneal) in CD2F1 (CDF1) mice
Conditions: endpoint: median survival time, higher = longer survival
Summary of the method: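 Mice carrying the transplanted tumor received test compound or vehicle. Survival was recorded in each group, and the value is the treated-group measurement divided by that of the vehicle-treated control group.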

[1] = dose: 50.0 mg/kg/injection, schedule: Q01DX005 (ip), vehicle: saline with Tween-80
[2] = dose: 100.0 mg/kg/injection, schedule: Q01DX005 (ip), vehicle: saline with Tween-80
[3] = dose: 50.0 mg/kg/injection, schedule: Q01DX005 (ip), vehicle: saline
[4] = dose: 100.0 mg/kg/injection, schedule: Q01DX005 (ip), vehicle: saline
[5] = dose: 200.0 mg/kg/injection, schedule: Q01DX005 (ip), vehicle: saline
[6] = dose: 25.0 mg/kg/injection, schedule: Q01DX005 (ip), vehicle: Klucel (hydroxypropylcellulose) (HPC)
[7] = dose: 50.0 mg/kg/injection, schedule: Q01DX005 (ip), vehicle: Klucel (hydroxypropylcellulose) (HPC)
[8] = dose: 100.0 mg/kg/injection, schedule: Q01DX005 (ip), vehicle: Klucel (hydroxypropylcellulose) (HPC)
[9] = dose: 200.0 mg/kg/injection, schedule: Q01DX005 (ip), vehicle: Klucel (hydroxypropylcellulose) (HPC)
[10] = dose: 25.0 mg/kg/injection, schedule: Q01DX005 (ip), vehicle: saline with Tween-80
[11] = dose: 50.0 mg/kg/injection, schedule: Q01DX009 (ip), vehicle: saline with Tween-80
[12] = dose: 100.0 mg/kg/injection, schedule: Q01DX009 (ip), vehicle: saline with Tween-80
[13] = dose: 200.0 mg/kg/injection, schedule: Q01DX009 (ip), vehicle: saline with Tween-80
[14] = dose: 12.5 mg/kg/injection, schedule: Q01DX005 (ip), vehicle: Klucel (hydroxypropylcellulose) (HPC)
[15] = dose: 200.0 mg/kg/injection, schedule: Q01DX005 (ip), vehicle: saline with Tween-80

Measured: T/C

Cc1ccc(S(=O)(=O)Nc2ccc3nc(C)oc3c2)cc1
inactive: dose: 100.0 mg/kg/injection, schedule: Q01DX001 (ip), vehicle: saline with Tween-80 100 % of control | dose: 200.0 mg/kg/injection, schedule: Q01DX001 (ip), vehicle: saline with Tween-80 100 % of control | dose: 400.0 mg/kg/injection, schedule: Q01DX001 (ip), vehicle: saline with Tween-80 100 % of control

COc1ccc(CCNC(=O)c2c3nc4c(C(=O)NCCc5ccc(OC)c(OC)c5)ccc(C)c4oc-3c(C)c(=O)c2N)cc1OC
inactive: dose: 100.0 mg/kg/injection, schedule: Q04DX003 (ip), vehicle: saline + alcohol 104 % of control | dose: 200.0 mg/kg/injection, schedule: Q04DX003 (ip), vehicle: saline + alcohol 102 % of control | dose: 400.0 mg/kg/injection, schedule: Q04DX003 (ip), vehicle: saline + alcohol 105 % of control

CC1=NOC(=O)/C1=C/c1ccccc1C
inactive: [1] 104 % of control | [2] 104 % of control

CC1(C)[C@H](O)CC[C@]2(C)[C@@H]1CC[C@]13C=C[C@](C)(C1)[C@H](O)C[C@H]32
inactive: dose: 1.88 mg/kg/injection, schedule: Q01DX005 (ip), vehicle: Klucel (hydroxypropylcellulose) (HPC) 96 % of control | dose: 3.75 mg/kg/injection, schedule: Q01DX005 (ip), vehicle: Klucel (hydroxypropylcellulose) (HPC) 94 % of control | dose: 7.5 mg/kg/injection, schedule: Q01DX005 (ip), vehicle: Klucel (hydroxypropylcellulose) (HPC) 91 % of control | dose: 15.0 mg/kg/injection, schedule: Q01DX005 (ip), vehicle: Klucel (hydroxypropylcellulose) (HPC) 95 % of control

CN(C)c1ccc(C(c2c(O)c3ccccc3oc2=O)c2c(O)c3ccccc3oc2=O)cc1
inactive: dose: 3.75 mg/kg/injection, schedule: Q01DX005 (ip), vehicle: saline with Tween-80 99 % of control | dose: 7.5 mg/kg/injection, schedule: Q01DX005 (ip), vehicle: saline with Tween-80 91 % of control | dose: 15.0 mg/kg/injection, schedule: Q01DX005 (ip), vehicle: saline with Tween-80 88 % of control and 98 % of control

CC1(C)CC(=O)C2=C(C1)NC(=O)CC2
inactive: dose: 60.0 mg/kg/injection, schedule: Q01DX005 (ip), vehicle: saline with Tween-80 101 % of control | dose: 120.0 mg/kg/injection, schedule: Q01DX005 (ip), vehicle: saline with Tween-80 101 % of control | dose: 240.0 mg/kg/injection, schedule: Q01DX005 (ip), vehicle: saline with Tween-80 96 % of control

NC1CC(=O)N(Cc2ccccc2)C1=O (stereo unspecified)
inactive: [3] 97 % of control | [4] 91 % of control | [5] 93 % of control

N#Cc1ccc(-c2ccccc2)nc1Cl
inactive: [6] 98 % of control | [7] 98 % of control | [8] 93 % of control | [9] 102 % of control

CN(C)c1ccc(/C=C2/SC(=S)NC2=O)cc1
inactive: [10] 93 % of control | [1] 90 % of control | [2] 87 % of control

N#CNC1=NC(c2ccccc2O)CC(=O)N1 (stereo unspecified)
inactive: dose: 100.0 mg/kg/injection, schedule: Q04DX003 (ip), vehicle: suspension in saline 98 % of control | dose: 200.0 mg/kg/injection, schedule: Q04DX003 (ip), vehicle: suspension in saline 105 % of control | dose: 400.0 mg/kg/injection, schedule: Q04DX003 (ip), vehicle: suspension in saline 100 % of control

COc1cc2c(cc1O)C(CSC)Cc1cc3c(cc1N(C)CC2)OCO3 (stereo unspecified)
inactive: dose: 12.5 mg/kg/injection, schedule: Q01DX009 (ip), vehicle: saline with Tween-80 100 % of control | dose: 25.0 mg/kg/injection, schedule: Q01DX009 (ip), vehicle: saline with Tween-80 100 % of control | [11] 102 % of control | [12] 88 % of control | [13] 95 % of control

NC(N)=N/N=C/c1ccc(-c2cc3ccc(/C=N/N=C(N)N)cc3s2)cc1
inactive: [14] 114 % of control | [6] 116 % of control | [7] 121 % of control | [8] 118 % of control | [9] 107 % of control

N#CC(c1ccccc1)c1cnccn1 (stereo unspecified)
inactive: [10] 102 % of control | [1] 100 % of control

Cc1ccc2c(N=Nc3ccc(C(=N)N)cc3)ccc(O)c2n1
inactive: [6] 104 % of control | [7] 113 % of control | [8] 111 % of control | [9] 105 % of control

Nc1nn2nnnc2c2ccccc12
inactive: dose: 25.0 mg/kg/injection, schedule: Q04DX002 (ip), vehicle: saline 107 % of control | dose: 50.0 mg/kg/injection, schedule: Q04DX002 (ip), vehicle: saline 96 % of control | dose: 100.0 mg/kg/injection, schedule: Q04DX002 (ip), vehicle: saline 101 % of control and 89 % of control | dose: 400.0 mg/kg/injection, schedule: Q04DX002 (ip), vehicle: saline 92 % of control

Cc1nn(-c2ccccc2)c2c1c(=O)c1ccccc1c(=O)n2C
inactive: [7] 105 % of control | [8] 104 % of control | [9] 94 % of control

CNCCOC(=O)/C=C1\CC[C@H]2[C@@H]([C@@H](O)C(=O)[C@@H]3[C@]2(C)CC[C@H](O)[C@]3(C)C(=O)OC)[C@H]1C
inactive: dose: 3.0 mg/kg/injection, schedule: Q01DX009 (ip), vehicle: saline 100 % of control | dose: 6.0 mg/kg/injection, schedule: Q01DX009 (ip), vehicle: saline 97 % of control | dose: 12.0 mg/kg/injection, schedule: Q01DX009 (ip), vehicle: saline 109 % of control | dose: 12.5 mg/kg/injection, schedule: Q01DX009 (ip), vehicle: saline 114 % of control

Oc1ccc(N=Nc2c(-c3ccccc3)nn(C(=S)S)c2-c2ccccc2)cc1
inactive: [1] 103 % of control | [2] 102 % of control | [15] 101 % of control

CCn1cc(C(=O)O)c(=O)c2cnc(N3CCCC3)nc21
inactive: [11] 90 % of control | [12] 99 % of control | [13] 92 % of control

C=C1C(=O)OC2/C=C(/CO)C3(O)CC(O)C(C)(CC(OC(=O)/C(C)=C/C)C12)O3 (stereo unspecified)
inactive: dose: 10.0 mg/kg/injection, schedule: Q01DX009 (ip), vehicle: saline with Tween-80 114 % of control and 117 % of control | dose: 20.0 mg/kg/injection, schedule: Q01DX009 (ip), vehicle: saline with Tween-80 124 % of control

CCCCCCC1N=C(N)N=C(N)N1c1cccc(Cl)c1 (stereo unspecified)
inactive: [14] 118 % of control | [6] 114 % of control

CCc1cccc(C)c1NC(=O)C(=O)CC(=O)c1ccccc1Cl
inactive: [3] 103 % of control | [4] 107 % of control | [5] 103 % of control

Cc1ccc(C2(C(=O)O)CC2)cc1
inactive: [12] 100 % of control | [13] 100 % of control | dose: 400.0 mg/kg/injection, schedule: Q01DX009 (ip), vehicle: saline with Tween-80 90 % of control

O=C1CC23CCCN2CCc2cc4c(cc2C3=C1O)OCO4 (stereo unspecified)
inactive: dose: 1.56 mg/kg/injection, schedule: Q01DX009 (ip), vehicle: water 98 % of control | dose: 3.13 mg/kg/injection, schedule: Q01DX009 (ip), vehicle: water 104 % of control | dose: 6.25 mg/kg/injection, schedule: Q01DX009 (ip), vehicle: water 98 % of control | dose: 12.5 mg/kg/injection, schedule: Q01DX009 (ip), vehicle: water 92 % of control | dose: 25.0 mg/kg/injection, schedule: Q01DX009 (ip), vehicle: water 88 % of control

Cn1c(-c2ccccc2)nc(-c2ccccc2)[n+]1[O-]
inactive: dose: 60.0 mg/kg/injection, schedule: Q01DX005 (ip), vehicle: Klucel (hydroxypropylcellulose) (HPC) 102 % of control | dose: 120.0 mg/kg/injection, schedule: Q01DX005 (ip), vehicle: Klucel (hydroxypropylcellulose) (HPC) 96 % of control | dose: 240.0 mg/kg/injection, schedule: Q01DX005 (ip), vehicle: Klucel (hydroxypropylcellulose) (HPC) 95 % of control

CCCCc1c(OC)cc(O)c2c1C(=O)c1[nH]c(C(=O)O)c(O)c(=O)c1C2=O
inactive: dose: 7.5 mg/kg/injection, schedule: Q01DX009 (ip), vehicle: Klucel (hydroxypropylcellulose) (HPC) 98 % of control | dose: 15.0 mg/kg/injection, schedule: Q01DX009 (ip), vehicle: Klucel (hydroxypropylcellulose) (HPC) 100 % of control | dose: 30.0 mg/kg/injection, schedule: Q01DX009 (ip), vehicle: Klucel (hydroxypropylcellulose) (HPC) 95 % of control

CC(C)(C)OC(=O)NCCCC(NC(=O)OCc1ccccc1)C(=O)O (stereo unspecified)
inactive: [1] 103 % of control | [2] 99 % of control | [15] 95 % of control

O=C(CC(c1ccccc1)C(C(=O)O)c1ccc(Br)cc1)c1ccccc1 (stereo unspecified)
inactive: [14] 100 % of control | [6] 90 % of control | [7] 89 % of control
